Columns and labels:
ABL2 = ABL2 (Homo sapiens, UniProt P42684); assay: Kinase profiling; format: binding; conditions: read-out: % Ctrl @ 1000 nM
CDK11 = CDK11 (Homo sapiens, UniProt Q9BWU1); assay: Kinase profiling; format: binding; conditions: read-out: % Ctrl @ 1000 nM
TAOK3 = TAOK3 (Homo sapiens, UniProt Q9H2K8); assay: Kinase profiling; format: binding; conditions: read-out: % Ctrl @ 1000 nM
CDK4-cyclinD1 = CDK4-cyclinD1 (Homo sapiens, UniProt P11802); assay: Kinase profiling; format: binding; conditions: read-out: % Ctrl @ 1000 nM
PDGFRA = PDGFRA (Homo sapiens, UniProt P16234); assay: Kinase profiling; format: binding; conditions: read-out: % Ctrl @ 1000 nM
SIK2 = SIK2 (Homo sapiens, UniProt Q9H0K1); assay: Kinase profiling; format: binding; conditions: read-out: % Ctrl @ 1000 nM
EGFR (G719C) = EGFR (G719C) (Homo sapiens, UniProt P00533, G719C); assay: Kinase profiling; format: binding; conditions: read-out: % Ctrl @ 1000 nM
BRAF (V600E) = BRAF (V600E) (Homo sapiens, UniProt P15056, V600E); assay: Kinase profiling; format: binding; conditions: read-out: % Ctrl @ 1000 nM
MARK4 = MARK4 (Homo sapiens, UniProt Q96L34); assay: Kinase profiling; format: binding; conditions: read-out: % Ctrl @ 1000 nM
EPHA7 = EPHA7 (Homo sapiens, UniProt Q15375); assay: Kinase profiling; format: binding; conditions: read-out: % Ctrl @ 1000 nM
GRK7 = GRK7 (Homo sapiens, UniProt Q8WTQ7); assay: Kinase profiling; format: binding; conditions: read-out: % Ctrl @ 1000 nM
ROS1 = ROS1 (Homo sapiens, UniProt P08922); assay: Kinase profiling; format: binding; conditions: read-out: % Ctrl @ 1000 nM
FGFR2 = FGFR2 (Homo sapiens, UniProt P21802); assay: Kinase profiling; format: binding; conditions: read-out: % Ctrl @ 1000 nM
PFTAIRE2 = PFTAIRE2 (Homo sapiens, UniProt Q96Q40); assay: Kinase profiling; format: binding; conditions: read-out: % Ctrl @ 1000 nM
EPHB3 = EPHB3 (Homo sapiens, UniProt P54753); assay: Kinase profiling; format: binding; conditions: read-out: % Ctrl @ 1000 nM
PFCDPK1 (P.falciparum) = PFCDPK1 (P.falciparum) (Plasmodium falciparum, UniProt P62344); assay: Kinase profiling; format: binding; conditions: read-out: % Ctrl @ 1000 nM
CAMK1 = CAMK1 (Homo sapiens, UniProt Q14012); assay: Kinase profiling; format: binding; conditions: read-out: % Ctrl @ 1000 nM
EPHA1 = EPHA1 (Homo sapiens, UniProt P21709); assay: Kinase profiling; format: binding; conditions: read-out: % Ctrl @ 1000 nM
PKN1 = PKN1 (Homo sapiens, UniProt Q16512); assay: Kinase profiling; format: binding; conditions: read-out: % Ctrl @ 1000 nM
[1] = target: EGFR (L747-T751del, Sins) (Homo sapiens, UniProt P00533, DEL747-750/T751S); assay: Kinase profiling; format: binding; conditions: read-out: % Ctrl @ 1000 nM
YSK4 = YSK4 (Homo sapiens, UniProt Q56UN5); assay: Kinase profiling; format: binding; conditions: read-out: % Ctrl @ 1000 nM
[2] = tested on: CD8 (T cell surface marker); assay: CD8 IHC test in MC-38 tumor; format: in vivo, mouse; conditions: MC-38 tumors; vs vehicle group
Procedure: MC38 tumor tissues were collected at the end of the in vivo efficacy trial. The tumor tissue was then embedded in paraffin. The expression of CD3/CD4/CD8/F4-80 were tested by immunohistochemistry stain.

CDC2L5 = CDC2L5 (Homo sapiens, UniProt Q14004); assay: Kinase profiling; format: binding; conditions: read-out: % Ctrl @ 1000 nM
[3] = target: JAK1 (JH2domain-pseudokinase) (Homo sapiens, UniProt P23458); assay: Kinase profiling; format: binding; conditions: read-out: % Ctrl @ 1000 nM
ERK2 = ERK2 (Homo sapiens, UniProt P28482); assay: Kinase profiling; format: binding; conditions: read-out: % Ctrl @ 1000 nM
ANKK1 = ANKK1 (Homo sapiens, UniProt Q8NFD2); assay: Kinase profiling; format: binding; conditions: read-out: % Ctrl @ 1000 nM
DYRK1A = DYRK1A (Homo sapiens, UniProt Q13627); assay: Kinase profiling; format: binding; conditions: read-out: % Ctrl @ 1000 nM
PIP5K2B = PIP5K2B (Homo sapiens, UniProt P78356); assay: Kinase profiling; format: binding; conditions: read-out: % Ctrl @ 1000 nM
[4] = target: RSK3 (Kin.Dom.1-N-terminal) (Homo sapiens, UniProt Q15349); assay: Kinase profiling; format: binding; conditions: read-out: % Ctrl @ 1000 nM
ADCK3 = ADCK3 (Homo sapiens, UniProt Q8NI60); assay: Kinase profiling; format: binding; conditions: read-out: % Ctrl @ 1000 nM
ULK3 = ULK3 (Homo sapiens, UniProt Q6PHR2); assay: Kinase profiling; format: binding; conditions: read-out: % Ctrl @ 1000 nM
INSRR = INSRR (Homo sapiens, UniProt P14616); assay: Kinase profiling; format: binding; conditions: read-out: % Ctrl @ 1000 nM
PIK3CA (E542K) = PIK3CA (E542K) (Homo sapiens, UniProt P42336, E542K); assay: Kinase profiling; format: binding; conditions: read-out: % Ctrl @ 1000 nM
[5] = target: EGFR (L747-S752del, P753S) (Homo sapiens, UniProt P00533, DEL747-752/P753S); assay: Kinase profiling; format: binding; conditions: read-out: % Ctrl @ 1000 nM
FGFR3 (G697C) = FGFR3 (G697C) (Homo sapiens, UniProt P22607, G697C); assay: Kinase profiling; format: binding; conditions: read-out: % Ctrl @ 1000 nM
PAK1 = PAK1 (Homo sapiens, UniProt Q13153); assay: Kinase profiling; format: binding; conditions: read-out: % Ctrl @ 1000 nM
TRKC = TRKC (Homo sapiens, UniProt Q16288); assay: Kinase profiling; format: binding; conditions: read-out: % Ctrl @ 1000 nM
ERBB4 = ERBB4 (Homo sapiens, UniProt Q15303); assay: Kinase profiling; format: binding; conditions: read-out: % Ctrl @ 1000 nM

Sequence of PKN1 (Q16512 whole entry): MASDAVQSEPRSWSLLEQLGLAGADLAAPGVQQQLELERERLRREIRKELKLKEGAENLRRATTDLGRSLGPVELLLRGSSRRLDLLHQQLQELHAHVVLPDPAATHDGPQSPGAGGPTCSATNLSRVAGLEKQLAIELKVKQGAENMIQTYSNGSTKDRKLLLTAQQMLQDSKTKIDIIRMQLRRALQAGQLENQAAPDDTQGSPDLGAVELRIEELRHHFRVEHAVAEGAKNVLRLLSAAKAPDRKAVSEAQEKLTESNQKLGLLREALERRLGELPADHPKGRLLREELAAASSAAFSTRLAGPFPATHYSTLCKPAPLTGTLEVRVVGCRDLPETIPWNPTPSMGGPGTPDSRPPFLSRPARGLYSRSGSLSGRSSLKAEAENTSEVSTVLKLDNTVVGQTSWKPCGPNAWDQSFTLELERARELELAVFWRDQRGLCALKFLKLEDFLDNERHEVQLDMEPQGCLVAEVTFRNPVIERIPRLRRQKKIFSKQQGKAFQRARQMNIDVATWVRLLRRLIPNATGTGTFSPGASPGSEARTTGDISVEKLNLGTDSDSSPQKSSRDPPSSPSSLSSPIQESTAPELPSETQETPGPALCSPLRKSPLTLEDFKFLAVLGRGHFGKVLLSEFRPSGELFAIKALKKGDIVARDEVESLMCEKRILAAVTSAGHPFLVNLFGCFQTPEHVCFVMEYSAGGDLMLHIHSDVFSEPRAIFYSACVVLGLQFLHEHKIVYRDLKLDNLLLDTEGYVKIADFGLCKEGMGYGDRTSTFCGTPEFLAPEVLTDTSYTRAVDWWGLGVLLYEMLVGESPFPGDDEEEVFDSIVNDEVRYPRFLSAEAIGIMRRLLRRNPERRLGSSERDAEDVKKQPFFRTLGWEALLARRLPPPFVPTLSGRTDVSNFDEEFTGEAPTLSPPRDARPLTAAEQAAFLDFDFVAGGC
Sequence of EGFR (L747-T751del, Sins) (P00533 with tags, fused parts or gaps DEL747-750/T751S limits assumed): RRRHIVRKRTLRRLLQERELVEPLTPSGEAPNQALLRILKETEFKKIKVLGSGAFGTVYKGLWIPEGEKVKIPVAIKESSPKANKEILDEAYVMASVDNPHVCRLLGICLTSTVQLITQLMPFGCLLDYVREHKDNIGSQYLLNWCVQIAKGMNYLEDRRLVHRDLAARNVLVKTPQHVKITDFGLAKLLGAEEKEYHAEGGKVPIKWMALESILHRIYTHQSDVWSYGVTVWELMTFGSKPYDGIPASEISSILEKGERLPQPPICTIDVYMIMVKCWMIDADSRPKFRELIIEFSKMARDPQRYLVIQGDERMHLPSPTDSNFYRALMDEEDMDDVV
Sequence of TAOK3 (Q9H2K8 whole entry): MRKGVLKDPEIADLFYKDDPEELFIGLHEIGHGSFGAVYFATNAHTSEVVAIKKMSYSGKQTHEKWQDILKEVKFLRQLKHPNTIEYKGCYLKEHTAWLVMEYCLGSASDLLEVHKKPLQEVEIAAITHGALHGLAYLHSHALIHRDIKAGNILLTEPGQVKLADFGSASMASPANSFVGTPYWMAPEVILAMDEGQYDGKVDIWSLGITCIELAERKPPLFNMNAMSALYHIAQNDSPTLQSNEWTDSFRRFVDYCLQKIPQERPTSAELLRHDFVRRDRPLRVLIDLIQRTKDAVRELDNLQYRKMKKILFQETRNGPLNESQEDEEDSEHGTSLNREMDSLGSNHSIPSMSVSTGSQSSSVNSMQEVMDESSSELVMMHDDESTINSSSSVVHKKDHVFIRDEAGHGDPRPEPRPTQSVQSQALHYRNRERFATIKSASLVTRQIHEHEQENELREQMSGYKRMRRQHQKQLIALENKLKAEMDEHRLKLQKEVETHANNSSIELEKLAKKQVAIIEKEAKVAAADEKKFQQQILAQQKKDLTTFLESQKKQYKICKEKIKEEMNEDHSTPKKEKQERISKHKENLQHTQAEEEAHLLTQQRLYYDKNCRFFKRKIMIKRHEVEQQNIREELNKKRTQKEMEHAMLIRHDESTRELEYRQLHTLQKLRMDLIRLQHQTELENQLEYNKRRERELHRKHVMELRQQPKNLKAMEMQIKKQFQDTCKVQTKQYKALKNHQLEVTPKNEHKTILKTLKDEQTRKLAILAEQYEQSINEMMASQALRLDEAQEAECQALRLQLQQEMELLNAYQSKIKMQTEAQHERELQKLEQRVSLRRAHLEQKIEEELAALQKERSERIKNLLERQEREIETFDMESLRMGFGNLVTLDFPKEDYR
Sequence of CDK11 (Q9BWU1 whole entry): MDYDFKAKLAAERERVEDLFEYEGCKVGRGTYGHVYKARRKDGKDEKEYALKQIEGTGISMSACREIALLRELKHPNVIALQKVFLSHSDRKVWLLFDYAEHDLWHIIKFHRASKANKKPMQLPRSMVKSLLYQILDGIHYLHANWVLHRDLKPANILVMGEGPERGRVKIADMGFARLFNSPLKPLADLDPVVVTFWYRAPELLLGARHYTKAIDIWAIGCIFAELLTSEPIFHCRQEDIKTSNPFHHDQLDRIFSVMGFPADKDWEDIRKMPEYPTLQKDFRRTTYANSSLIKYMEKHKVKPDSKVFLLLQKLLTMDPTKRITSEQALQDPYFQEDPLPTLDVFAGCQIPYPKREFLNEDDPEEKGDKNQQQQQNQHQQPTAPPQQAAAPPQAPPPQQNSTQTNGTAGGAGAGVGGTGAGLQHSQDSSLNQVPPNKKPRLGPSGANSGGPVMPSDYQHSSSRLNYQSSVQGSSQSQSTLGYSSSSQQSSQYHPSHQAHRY
Sequence of CDC2L5 (Q14004 whole entry): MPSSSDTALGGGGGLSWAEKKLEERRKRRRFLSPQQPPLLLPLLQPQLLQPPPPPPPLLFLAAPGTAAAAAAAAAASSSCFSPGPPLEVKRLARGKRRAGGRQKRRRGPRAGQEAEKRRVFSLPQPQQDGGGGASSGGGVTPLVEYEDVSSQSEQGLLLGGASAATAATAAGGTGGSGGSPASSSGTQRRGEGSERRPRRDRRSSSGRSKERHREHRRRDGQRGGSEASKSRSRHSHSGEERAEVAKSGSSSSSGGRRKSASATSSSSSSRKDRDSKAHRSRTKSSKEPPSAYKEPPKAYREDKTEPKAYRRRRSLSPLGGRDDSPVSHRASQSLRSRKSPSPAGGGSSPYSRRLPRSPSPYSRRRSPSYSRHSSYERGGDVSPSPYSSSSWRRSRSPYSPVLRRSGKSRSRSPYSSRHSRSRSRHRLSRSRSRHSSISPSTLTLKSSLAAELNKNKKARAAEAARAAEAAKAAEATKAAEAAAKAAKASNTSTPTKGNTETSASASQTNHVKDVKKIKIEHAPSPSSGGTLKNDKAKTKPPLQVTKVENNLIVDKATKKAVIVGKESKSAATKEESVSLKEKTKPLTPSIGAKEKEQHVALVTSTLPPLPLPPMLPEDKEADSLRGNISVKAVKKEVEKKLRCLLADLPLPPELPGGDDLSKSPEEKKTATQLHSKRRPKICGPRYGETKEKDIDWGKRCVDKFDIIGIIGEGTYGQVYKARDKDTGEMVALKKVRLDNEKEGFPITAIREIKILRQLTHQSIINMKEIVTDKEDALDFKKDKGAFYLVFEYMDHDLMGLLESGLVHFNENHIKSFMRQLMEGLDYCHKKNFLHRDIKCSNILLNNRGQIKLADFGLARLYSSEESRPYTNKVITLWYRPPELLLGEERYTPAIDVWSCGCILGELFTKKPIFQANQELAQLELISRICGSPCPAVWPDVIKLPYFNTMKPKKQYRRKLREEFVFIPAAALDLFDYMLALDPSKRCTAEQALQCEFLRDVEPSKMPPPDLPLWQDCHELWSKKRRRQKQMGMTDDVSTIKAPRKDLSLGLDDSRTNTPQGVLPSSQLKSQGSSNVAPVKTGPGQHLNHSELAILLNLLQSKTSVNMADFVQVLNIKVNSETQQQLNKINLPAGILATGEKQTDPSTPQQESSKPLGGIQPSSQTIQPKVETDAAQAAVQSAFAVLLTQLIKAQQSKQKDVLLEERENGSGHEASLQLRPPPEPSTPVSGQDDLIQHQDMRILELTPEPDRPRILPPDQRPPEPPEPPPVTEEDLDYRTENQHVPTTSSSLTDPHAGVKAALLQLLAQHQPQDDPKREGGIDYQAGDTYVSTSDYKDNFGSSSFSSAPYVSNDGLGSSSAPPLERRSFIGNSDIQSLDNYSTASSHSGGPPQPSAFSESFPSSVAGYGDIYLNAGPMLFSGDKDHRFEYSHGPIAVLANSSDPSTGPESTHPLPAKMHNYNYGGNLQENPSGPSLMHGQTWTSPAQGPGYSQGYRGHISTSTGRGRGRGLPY
Sequence of MARK4 (Q96L34 whole entry): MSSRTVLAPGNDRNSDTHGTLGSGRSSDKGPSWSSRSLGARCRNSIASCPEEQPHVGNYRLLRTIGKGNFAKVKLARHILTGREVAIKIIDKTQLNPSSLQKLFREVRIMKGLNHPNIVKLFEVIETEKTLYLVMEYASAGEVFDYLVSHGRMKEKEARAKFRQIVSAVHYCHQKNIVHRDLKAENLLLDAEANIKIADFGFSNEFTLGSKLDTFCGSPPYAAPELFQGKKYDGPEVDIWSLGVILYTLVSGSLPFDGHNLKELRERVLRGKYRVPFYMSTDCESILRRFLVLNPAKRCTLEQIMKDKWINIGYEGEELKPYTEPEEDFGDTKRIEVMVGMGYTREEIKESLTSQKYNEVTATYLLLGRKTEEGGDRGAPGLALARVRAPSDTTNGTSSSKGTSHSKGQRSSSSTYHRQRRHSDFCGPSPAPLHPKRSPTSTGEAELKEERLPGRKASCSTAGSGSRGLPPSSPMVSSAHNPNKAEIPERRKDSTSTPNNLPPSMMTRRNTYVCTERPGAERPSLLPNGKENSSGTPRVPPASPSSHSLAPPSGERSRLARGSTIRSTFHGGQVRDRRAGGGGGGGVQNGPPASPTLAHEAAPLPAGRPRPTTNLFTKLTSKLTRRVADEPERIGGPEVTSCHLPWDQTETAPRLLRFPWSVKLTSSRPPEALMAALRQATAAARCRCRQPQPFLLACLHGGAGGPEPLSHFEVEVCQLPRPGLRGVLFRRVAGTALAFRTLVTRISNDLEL

Which remaining activity at 1 µM (ABL2) does the source give for `Cc1cc(Oc2cc(NC(=O)C3CC3)ncn2)ccc1NC(=O)Nc1ccc(Cl)c(C(F)(F)F)c1` [CBT-102] here?
The remaining activity at 1 µM was 40%.

And the remaining activity at 1 µM (CDK11)?
Its remaining activity at 1 µM is 0%.

What about the remaining activity at 1 µM (TAOK3) of the same molecule?
Its remaining activity at 1 µM is 9.6%.

And the remaining activity at 1 µM (CDK4-cyclinD1)?
Its remaining activity at 1 µM is 99%.

And the remaining activity at 1 µM (PDGFRA)?
Its remaining activity at 1 µM is 2.1%.

And the remaining activity at 1 µM (SIK2)?
The remaining activity at 1 µM was 100%.

And the remaining activity at 1 µM (EGFR (G719C))?
The remaining activity at 1 µM was 66%.

What about the remaining activity at 1 µM (BRAF (V600E)) of the same molecule?
The remaining activity at 1 µM was 1.8%.

What about the remaining activity at 1 µM (MARK4) of the same molecule?
The remaining activity at 1 µM was 100%.

What about the remaining activity at 1 µM (EPHA7) of the same molecule?
The remaining activity at 1 µM was 4.1%.

What about the remaining activity at 1 µM (GRK7) of the same molecule?
Its remaining activity at 1 µM is 100%.

What about the remaining activity at 1 µM (ROS1) of the same molecule?
The remaining activity at 1 µM was 63%.

And the remaining activity at 1 µM (FGFR2)?
Its remaining activity at 1 µM is 62%.

What about the remaining activity at 1 µM (PFTAIRE2) of the same molecule?
The remaining activity at 1 µM was 60%.

And the remaining activity at 1 µM (EPHB3)?
Its remaining activity at 1 µM is 82%.

What about the remaining activity at 1 µM (PFCDPK1 (P.falciparum)) of the same molecule?
Its remaining activity at 1 µM is 53%.

And the remaining activity at 1 µM (CAMK1)?
The remaining activity at 1 µM was 74%.

What about the remaining activity at 1 µM (EPHA1) of the same molecule?
The remaining activity at 1 µM was 45%.

And the remaining activity at 1 µM (PKN1)?
Its remaining activity at 1 µM is 100%.

And the remaining activity at 1 µM [1]?
The remaining activity at 1 µM was 88%.

What about the remaining activity at 1 µM (YSK4) of the same molecule?
The remaining activity at 1 µM was 9.6%.

And the “effect on T cell surface marker CD8 (IHC)” value [2]?
The value was “no significant effect”.

And the remaining activity at 1 µM (CDC2L5)?
The remaining activity at 1 µM was 73%.

What about the remaining activity at 1 µM [3] of the same molecule?
Its remaining activity at 1 µM is 100%.

And the remaining activity at 1 µM (ERK2)?
Its remaining activity at 1 µM is 97%.

And the remaining activity at 1 µM (ANKK1)?
The remaining activity at 1 µM was 100%.

What about the remaining activity at 1 µM (DYRK1A) of the same molecule?
The remaining activity at 1 µM was 97%.

And the remaining activity at 1 µM (PIP5K2B)?
The remaining activity at 1 µM was 99%.

And the remaining activity at 1 µM [4]?
The remaining activity at 1 µM was 98%.

What about the remaining activity at 1 µM (ADCK3) of the same molecule?
The remaining activity at 1 µM was 100%.

What about the remaining activity at 1 µM (ULK3) of the same molecule?
Its remaining activity at 1 µM is 88%.

And the remaining activity at 1 µM (INSRR)?
The remaining activity at 1 µM was 100%.

And the remaining activity at 1 µM (PIK3CA (E542K))?
Its remaining activity at 1 µM is 96%.

What about the remaining activity at 1 µM [5] of the same molecule?
The remaining activity at 1 µM was 85%.

What about the remaining activity at 1 µM (FGFR3 (G697C)) of the same molecule?
Its remaining activity at 1 µM is 100%.

And the remaining activity at 1 µM (PAK1)?
Its remaining activity at 1 µM is 100%.

What about the remaining activity at 1 µM (TRKC) of the same molecule?
The remaining activity at 1 µM was 37%.

What about the remaining activity at 1 µM (ERBB4) of the same molecule?
The remaining activity at 1 µM was 100%.

— patent US20220088016A1, “CANCER TREATMENT USING MULTI-TARGETED KINASE INHIBITOR IN COMBINATION OF PROTEIN KINASE BIOMARKERS” (ZHEJIANG CROWNMAB BIOTECH CO. LTD., priority 2019, published 2022)
